Test results reported in patent US9120815B2, “Solid state forms of macrocyclic kinase inhibitors” (Tragara Pharmaceuticals, Inc., priority 2010, dated 2015).
Entries after “also recorded” stand apart in the source; their conditions may differ.

Columns and labels:
Type in all cases: physicochemical
[1] = Thermodynamic aqueous solubility; details: for solubility at 24 h: 25 °C, thermodynamic from solid; for solubility at 24 h / aqueous solubility: water; for final pH: pH of the aqueous suspension after equilibration; for aqueous solubility: 25° C., 24 hours
Procedure: Aqueous solubility was determined by suspending sufficient compound in water to give a maximum final concentration of 210 mg·ml^−1 of the parent free-form of the compound. The suspension was equilibrated at 25° C. for 24 hours then the pH was measured. The suspension was then filtered through a glass fibre C filter into a 96 well plate. The filtrate was then diluted by a factor of 101. Quantitation was by HPLC with reference to a standard solution of approximately 0.1 mg·ml^−1. in DMSO. Different volumes of the standard, diluted and undiluted sample solutions were injected. The solubility was calculated using the peak areas determined by integration of the peak found at the same retention time as the principal peak in the standard injection.
Analysis was performed on an Agilent HP1 100 series system equipped with a diode array detector and using ChemStation software vB.02.01-SR1.

[2] = Stability in humidity chamber 40° C./75% R.H. (XRPD, HPLC); details: 2 weeks
Procedure: After 2 days, the solids were isolated by filtration under vacuum at RT to be characterised by XRPD analysis. Each new crystalline solid phase detected was characterised by ^1H NMR and TGA-DSC analyses in order to determine if salt formation had occurred and whether the material was a solvate. At this stage, each salt identified was then analysed by HPLC to determine the chemical purity prior to being stored in the humidity chamber (40° C./75% R.H.) to assess its stability.

[3] = Gravimetric Vapour Sorption (GVS) at 25° C.
Procedure: Sorption isotherms were obtained using a SMS DVS Intrinsic moisture sorption analyser, controlled by SMS Analysis Suite software. The sample temperature was maintained at 25° C. by the instrument controls. The humidity was controlled by mixing streams of dry and wet nitrogen, with a total flow rate of 200 ml.min^−1. The relative humidity was measured by a calibrated Rotronic probe (dynamic range of 1.0-100% RH), located near the sample. The weight change, (mass relaxation) of the sample as a function of % RH was constantly monitored by the microbalance (accuracy ±0.005 mg). Typically 5-20 mg of sample was placed in a tared mesh stainless steel basket under ambient conditions. The sample was loaded and unloaded at 40% RH and 25° C. (typical room conditions). A moisture sorption isotherm was performed as outlined below (2 scans giving 1 complete cycle). The standard isotherm was performed at 25° C. at 10% RH intervals over a 0.5-90% RH range. The sample was recovered after completion of the isotherm and re-analysed by XRPD.

[4] = Polymorph screen: maturation in solvents, XRPD; details: for XPRD Characterisation after maturation: 3 days
Procedure: An initial polymorphism screen was performed for the fumarate and citrate salts using 10 common class II and III organic solvents (with and without addition of water), plus pure water. […] The samples were subjected to a series of heat/cool cycles (room temp […], 8 hour cycles). After 3 days, the samples were filtered and the solids were characterised by XRPD analysis.

[5] = Stability study: rate of hydration of anhydrous polymorph in methocel/Tween 80 test medium, XRPD; details: for Time points where transformation was observed: no seeds
Procedure: Test medium was prepared by dissolving methocel (4 g) in water (196 mL) to afford a 2% (w/w) solution. After stirring for 12 hours to ensure a homogenous solution is obtained, Tween 80 (800 mg) and water (600 mL) was added and the mixture stirred for an additional 12 hours to homogenise.
(§1) Test medium (30 mL) was added and each sample was maturated at the indicated temperature and condition (−20° C., 4° C., room temperature with stirring and room temperature without stirring). […] The samples were monitored over time by XRPD to determine the rate of hydration of the anhydrous polymorph.
as §1, with “(5” for “(30”

[6] = Solid state stability at ambient conditions
[7] = Acetonitrile, w/ water (5% v/v)
[8] = DCM, w/o water, RT-50° C. cycles
[9] = Ethyl acetate, w/ water (5% v/v)
[10] = nitromethane, w/ water (5% v/v)
[11] = 1 mg/mL, 20-25° C. (under stirring)
[12] = 1 mg/mL, 20-25° C. (without stirring)
[13] = 10 mg/mL, 20-25° C. (under stirring)
[14] = 10 mg/mL, 20-25° C. (without stirring)
[15] = listed as Fumiarate Pattern 2, fumarate

Row | Structure (SMILES) | solubility at 24 h [1] | final pH [1] | aqueous solubility [1] | XPRD Characterisation after maturation ([4]; Acetone, w/ water (5% v/v)) | XPRD Characterisation after maturation ([4]; Acetone, w/o water) | XPRD Characterisation after maturation [4, 7] | XPRD Characterisation after maturation ([4]; Acetonitrile, w/o water) | XPRD Characterisation after maturation ([4]; DCM, w/ water (5% v/v)) | XPRD Characterisation after maturation [4, 8] | XPRD Characterisation after maturation ([4]; EtOH, w/ water (5% v/v)) | XPRD Characterisation after maturation ([4]; EtOH, w/o water) | XPRD Characterisation after maturation [4, 9] | XPRD Characterisation after maturation ([4]; Ethyl acetate, w/o water) | XPRD Characterisation after maturation ([4]; IPA, w/ water (5% v/v)) | XPRD Characterisation after maturation ([4]; IPA, w/o water) | XPRD Characterisation after maturation ([4]; TBME, w/ water (5% v/v)) | XPRD Characterisation after maturation ([4]; TBME, w/o water) | XPRD Characterisation after maturation ([4]; THF, w/ water (5% v/v)) | XPRD Characterisation after maturation ([4]; THF, w/o water) | XPRD Characterisation after maturation ([4]; Toluene, w/ water (5% v/v)) | other results
1 | CN1CC=CCCOc2cccc(c2)C2=CC=NC(=Nc3cccc(c3)C1)N2.O=C(O)CC(O)(CC(=O)O)C(=O)O [Citrate Pattern 1, 14-methyl-20-oxa-5,7,14,27-tetraazatetracyclo-[19.3.1.12,6.18,12]heptacosa-1(25),2,4,6,8,10,12(26),16,21,23-decaene citrate] | 160 µg/mL | 3.94 | 160 µg/mL | Citrate Pattern 1 | Citrate Pattern 1 | Citrate Pattern 2 | Citrate Pattern 1 | Citrate Pattern 3 | Citrate Pattern 1 | Citrate Pattern 1 | Citrate Pattern 1 | Citrate Pattern 2 | Citrate Pattern 1 | Citrate Pattern 1 | Citrate Pattern 1 | Citrate Pattern 2 | Citrate Pattern 1 | Citrate Pattern 2 | Citrate Pattern 1 | Citrate Pattern 2 | XPRD stability after 40° C./75% RH 2 weeks ([2]; citrate): not sensitive to humidity; also recorded: no transformation; also recorded: crystallinity, and no change was observed after; XPRD stability after 40° C./75% RH 2 weeks ([2]; listed as Citrate pattern 1, citrate): No change; changes in the XRPD pattern after the GVS experiment ([3]; citrate): no transformation; also recorded: between 0 and 90% relative humidity. No; XPRD Characterisation after maturation ([4]; Toluene, w/o water): Citrate Pattern 1; transformation after 3 days of maturation in dried solvents [4]: No transformation; XPRD Characterisation after maturation [4, 10]: Citrate Pattern 2; XPRD Characterisation after maturation ([4]; nitromethane, w/o water): Citrate Pattern 1; XPRD Characterisation after maturation ([4]; pure water): Citrate Pattern 2; kinetics of hydration ([5]; comparison of citrate and fumarate salts): slower than for the fumarate salt; Time points where transformation was observed ([5]; 1 mg/mL, 4° C.): No; Time points where transformation was observed [5, 11]: 120 h; Time points where transformation was observed [5, 12]: Clear Solution; Time points where transformation was observed ([5]; 1 mg/mL, −20° C.): No; Time points where transformation was observed ([5]; 10 mg/mL, 4° C.): No; Time points where transformation was observed [5, 13]: 48 h; Time points where transformation was observed [5, 14]: No conversion; Time points where transformation was observed ([5]; 10 mg/mL, −20° C.): No; stability in the solid state [6]: stable
2 | CN1CC=CCCOc2cccc(c2)C2=CC=NC(=Nc3cccc(c3)C1)N2.O=C(O)/C=C/C(=O)O [Fumarate Pattern 2, 14-methyl-20-oxa-5,7,14,27-tetraazatetracyclo-[19.3.1.12,6.18,12]heptacosa-1(25),2,4,6,8,10,12(26),16,21,23-decaene fumarate] | 29 µg/mL | 3.80 | 29 µg/mL | Fumarate Pattern 2 | Fumarate Pattern 2 | Fumarate Pattern 2 | Fumarate Pattern 2 | Fumarate Pattern 2 | Fumarate Pattern 2 | Fumarate Pattern 2 | Fumarate Pattern 2 | Fumarate Pattern 1 | Fumarate Pattern 2 | Fumarate Pattern 2 | Fumarate Pattern 2 | Fumarate Pattern 1 | Fumarate Pattern 2 | Fumarate Pattern 2 | Fumarate Pattern 2 | Fumarate Pattern 1 | XPRD stability after 40° C./75% RH 2 weeks ([2]; fumarate): not sensitive to humidity; XPRD stability after 40° C./75% RH 2 weeks ([2]; listed as Fumarate pattern 2, fumarate): no transformation; XPRD stability after 40° C./75% RH 2 weeks ([2]; listed as Fumareate pattern 2, fumarate): No change; XPRD stability after 40° C./75% RH 2 weeks [2, 15]: crystallinity, and no change was observed after; changes in the XRPD pattern after the GVS experiment ([3]; fumarate): no transformation; changes in the XRPD pattern after the GVS experiment [3, 15]: between 0 and 90% relative humidity. No; XPRD Characterisation after maturation ([4]; Toluene, w/o water): Fumarate Pattern 2; transformation after 3 days of maturation in dried solvents [4]: No transformation; XPRD Characterisation after maturation [4, 10]: Fumarate Pattern 2; XPRD Characterisation after maturation ([4]; nitromethane, w/o water): Fumarate Pattern 2; XPRD Characterisation after maturation ([4]; pure water): Fumarate Pattern 1; Time points where transformation was observed ([5]; 1 mg/mL, 4° C.): 120 h; Time points where transformation was observed [5, 11]: 24 h; Time points where transformation was observed [5, 12]: 48 h; Time points where transformation was observed ([5]; 1 mg/mL, −20° C.): 120 h; Time points where transformation was observed ([5]; 10 mg/mL, 4° C.): No; Time points where transformation was observed [5, 13]: 48 h; Time points where transformation was observed [5, 14]: 120 h; Time points where transformation was observed ([5]; 10 mg/mL, −20° C.): No; stability in the solid state [6]: stable
